Consider 3 compounds from US8637237B2, “Methods, compositions, and systems for the identification of species-specific or developmental stage-specific insecticides” (The University of North Carolina at Greensboro, priority 2003, dated 2014).

This assay addresses T1, EcRA/USP (Drosophila melanogaster, UniProt P34021).
T1 construct: The plasmid encodes a version of EcRA that includes 849 amino acids, and deletes the F domain; expressed in transfected cells; host or cells: CHO
T1 sequence (P34021 1-849 isoform P34021-2): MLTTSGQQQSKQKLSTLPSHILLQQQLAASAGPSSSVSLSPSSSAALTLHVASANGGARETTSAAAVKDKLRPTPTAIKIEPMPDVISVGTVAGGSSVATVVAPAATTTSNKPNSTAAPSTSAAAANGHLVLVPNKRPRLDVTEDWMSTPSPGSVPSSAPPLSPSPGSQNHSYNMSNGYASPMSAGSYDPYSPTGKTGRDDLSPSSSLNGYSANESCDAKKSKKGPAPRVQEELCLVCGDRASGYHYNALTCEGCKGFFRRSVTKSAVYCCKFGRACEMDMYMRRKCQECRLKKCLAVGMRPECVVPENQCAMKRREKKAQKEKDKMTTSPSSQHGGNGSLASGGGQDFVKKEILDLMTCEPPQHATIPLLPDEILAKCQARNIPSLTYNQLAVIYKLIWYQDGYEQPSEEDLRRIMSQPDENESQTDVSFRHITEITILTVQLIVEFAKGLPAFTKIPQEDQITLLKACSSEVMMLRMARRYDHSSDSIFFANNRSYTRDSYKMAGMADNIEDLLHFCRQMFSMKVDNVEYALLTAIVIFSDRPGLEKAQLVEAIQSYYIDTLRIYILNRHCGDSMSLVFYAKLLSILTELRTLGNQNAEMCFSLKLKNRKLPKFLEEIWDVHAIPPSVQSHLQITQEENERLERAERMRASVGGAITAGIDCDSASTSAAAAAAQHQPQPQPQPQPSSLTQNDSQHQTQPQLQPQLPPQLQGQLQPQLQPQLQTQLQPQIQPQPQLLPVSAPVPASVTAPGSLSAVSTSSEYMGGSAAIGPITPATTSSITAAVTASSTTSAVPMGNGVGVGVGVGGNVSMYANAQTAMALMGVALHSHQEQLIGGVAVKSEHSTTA
T1 sequence (O76202 192-472 partner): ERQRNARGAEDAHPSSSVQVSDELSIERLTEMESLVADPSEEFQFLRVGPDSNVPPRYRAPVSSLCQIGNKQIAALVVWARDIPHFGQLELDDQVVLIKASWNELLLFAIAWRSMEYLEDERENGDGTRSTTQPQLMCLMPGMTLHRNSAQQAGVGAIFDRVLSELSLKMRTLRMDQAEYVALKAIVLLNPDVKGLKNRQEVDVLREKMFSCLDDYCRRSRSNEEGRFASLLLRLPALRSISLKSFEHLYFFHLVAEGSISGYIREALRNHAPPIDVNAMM
The assay is described as follows: EcRA isoform with USP (VP16CfUSP), (EcRE)5-ΔMTV-LUC in CHO cells. Format: cell-based. On the procedure:
These experiments employed a mammalian cell culture system using Chinese hamster ovary cells (CHO) to evaluate the transcriptional function of Drosophila melanogaster EcR and USP using methods described previously (U.S. Patent Application Publication No: 2005/0049230; Henrich et al, 2003). Cells were seeded in 6-well polypropylene culture plates (Falcon) with 10^5 cells per well on the day prior to transfection. Transfection was subsequently performed using either calcium phosphate (Kitareewan et al., 1996, Mol. Biol. Cell, 7:1153-1196) or a GenePorter reagent (Gene Therapy Systems, Inc; San Diego, Calif.) following manufacturer's protocols. Each well received 1.25 μg of (EcRE)5-ΔMTV-CAT (five copies of the hsp27 EcRE inserted into an mouse mammary tumor virus (MTV) promoter upstream of the chloramphenicol acetyltransferase (CAT) gene) or (EcRE)5-ΔMTV-LUC (the same promoter attached to firefly luciferase), 1.25 μg of pCH111 (SV40 early promoter linked to the β-galactosidase gene) to normalize CAT activity, and 0.25 μg of each expression plasmid (EcR, FXR, RXR, USP) that was tested. The cells were incubated with plasmid DNA for seven hours and then washed with 1×PBS. Muristerone A (murA; Alexis Biochemicals) or 20-hydroxyecdysone (20E; Sigma) dissolved in ethanol to a concentration of 10 mM was diluted as necessary to the final assay concentration (FAC) in 2 ml of fresh incubation medium that was then applied to the cells. Similarly, JHIII (Sigma) was dissolved in dimethyl sulfoxide (DMSO) to a concentration of […] and diluted into the incubation medium to its final assay concentration (20, 40, 80, 160 μM). […] A corresponding volume of ethanol and DMSO were added to control cells for all experiments. For all experiments, the cells were allowed to incubate with the medium for 24 hours before collection and cell lysates were prepared by described methods (Kitareewan et al., 1996). Both β-galactosidase and CAT reporter activity were measured based on previously used methods (Kitareewan et al, 1996). Luciferase assays using luciferrin followed the specifications of the manufacturer.
Transcriptional activity, measured as ^14C-chloramphenicol counts (for measuring CAT activity) or relative luciferase activity (RLU) was quantified for each cell lysate. The counts were then normalized by adjusting for differences in β-galactosidase activity, since β-galactosidase expression is controlled by a constitutive promoter and provides an estimate of cell mass. Data were normalized as fold-induction based on differences in reporter gene activity between hormonally treated and control cells.

In the case of `CC(C)(O)CC[C@@H](O)[C@](C)(O)[C@H]1CC[C@@]2(O)C3=CC(=O)[C@@H]4C[C@@H](O)[C@@H](O)C[C@]4(C)[C@H]3CC[C@]12C` [20E, 20-hydroxyecdysone], where the note is “EcRA + VP16CfUSP, 10 μM 20E”, the “transcriptional response to 20E” value was “consistent and discernible transcriptional response”. For the same compound, where the note is “EcRA/USP, 10 μM 20E”, the “20E (inducibility)” value is “+ ((+) designates a change in transcriptional level that exceeds 2.5-fold)”.
Consider `COC(=O)/C=C(\C)CC/C=C(\C)CC[C@H]1OC1(C)C` [JHIII, juvenile hormone III], for which the “potentiation of murA response by JHIII” value (EcRA + VP16CfUSP, 80 μM JHIII with 0.1 μM murA) is recorded as “potentiated”. Also, the “MurA + JHIII (JHIII potentiation)” value (EcRA/USP, 0.1 μM murA + 80 μM JHIII) is “+ ((+) indicates observed potentiation that exceeds 2-fold above the levels observed with ecdysteroid alone)”.
Take `CC(C)CC[C@@H](O)[C@](C)(O)[C@H]1CC[C@@]2(O)C3=CC(=O)[C@]4(O)C[C@@H](O)[C@@H](O)C[C@]4(C)[C@H]3[C@H](O)C[C@]12C` [murA, muristerone A]: under “EcRA + VP16CfUSP, 1 μM murA”, the “induction by murA” value was 30-40 fold. In addition, the “MurA (inducibility)” value (EcRA/USP, 0.1 μM murA) is “+ ((+) designates a change in transcriptional level that exceeds 2.5-fold)”.
